Reference: the supplement of paper PMC10307832

Legend:
Test in all cases: relative viability (nuclei count vs DMSO), 5 days (fraction); higher = more cells survive
HCC-827 = system: HCC-827
Method in brief: (§1)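 Medians of duplicate plates are given as relative viability. That measure is the nuclei count in treated wells divided by the count in vehicle wells. Counts were taken on 4× images of lung cancer cell lines in 1536-well plates, 5 days after pin-tool dosing the day after seeding with one drug alone or a fixed anchor-drug dose plus five library-drug doses (not always all listed) in √10 steps.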

SK-MES-1 = system: SK-MES-1
Method in brief: as §1

NCI-H647 = system: NCI-H647
Method in brief: as §1

NCI-H1355 = system: NCI-H1355
Method in brief: as §1

NCI-H1734 = system: NCI-H1734
Method in brief: as §1

NCI-H1437 = system: NCI-H1437
Method in brief: as §1

NCI-H2087 = system: NCI-H2087
Method in brief: as §1

BEN = system: BEN
Method in brief: as §1

NCI-H1395 = system: NCI-H1395
Method in brief: as §1

SK-LU-1 = system: SK-LU-1
Method in brief: as §1

NCI-H2170 = system: NCI-H2170
Method in brief: as §1

`NC(=O)Nc1cc(-c2cccc(F)c2)sc1C(=O)N[C@H]1CCCNC1` [AZD7762] + CC1(C)CCC(c2ccc(Cl)cc2)=C(CN2CCN(c3ccc(C(=O)NS(=O)(=O)c4ccc(N[C@H](CCN5CCOCC5)CSc5ccccc5)c(S(=O)(=O)C(F)(F)F)c4)cc3)CC2)C1 [Navitoclax] (partner 0.5 µM) was tested, and the relative viability (HCC-827; first compound 0.1 µM) was 0.991, the relative viability (HCC-827; first compound 0.3162 µM) was 0.94 and the relative viability (HCC-827; first compound 1 µM) was 0.93. It also gave a relative viability (SK-MES-1; first compound 0.01 µM) of 1.24, a relative viability (SK-MES-1; first compound 0.03162 µM) of 1.38 and a relative viability (SK-MES-1; first compound 0.1 µM) of 1.41. For the same compound, the relative viability (SK-MES-1; first compound 0.3162 µM) was 1.28, the relative viability (SK-MES-1; first compound 1 µM) was 0.645 and the relative viability (NCI-H647; first compound 0.01 µM) was 1.33. The relative viability (NCI-H647; first compound 0.03162 µM) was 1.08, the relative viability (NCI-H647; first compound 0.1 µM) was 0.969 and the relative viability (NCI-H647; first compound 0.3162 µM) was 0.858. For the same compound, the relative viability (NCI-H647; first compound 1 µM) was 0.277, the relative viability (NCI-H1355; first compound 0.01 µM) was 0.879 and the relative viability (NCI-H1355; first compound 0.03162 µM) was 1.07. It also gave a relative viability (NCI-H1355; first compound 0.1 µM) of 0.946, a relative viability (NCI-H1355; first compound 0.3162 µM) of 1.01 and a relative viability (NCI-H1355; first compound 1 µM) of 0.914. The relative viability (NCI-H1734; first compound 0.01 µM) was 0.995, the relative viability (NCI-H1734; first compound 0.03162 µM) was 0.892 and the relative viability (NCI-H1734; first compound 0.1 µM) was 0.978. It also gave a relative viability (NCI-H1734; first compound 0.3162 µM) of 0.891, a relative viability (NCI-H1734; first compound 1 µM) of 0.606 and a relative viability (NCI-H1437; first compound 0.01 µM) of 1.09. It also gave a relative viability (NCI-H1437; first compound 0.03162 µM) of 1.04, a relative viability (NCI-H1437; first compound 0.1 µM) of 1.07 and a relative viability (NCI-H1437; first compound 0.3162 µM) of 1.08. It also gave a relative viability (NCI-H1437; first compound 1 µM) of 1.05, a relative viability (NCI-H2087; first compound 0.01 µM) of 1.13 and a relative viability (NCI-H2087; first compound 0.03162 µM) of 1. The relative viability (NCI-H2087; first compound 0.1 µM) was 1.27, the relative viability (NCI-H2087; first compound 0.3162 µM) was 1.17 and the relative viability (NCI-H2087; first compound 1 µM) was 1.28. For the same compound, the relative viability (BEN; first compound 0.01 µM) was 0.0635, the relative viability (BEN; first compound 0.03162 µM) was 0.0616 and the relative viability (BEN; first compound 0.1 µM) was 0.0641. For the same compound, the relative viability (BEN; first compound 0.3162 µM) was 0.0656, the relative viability (BEN; first compound 1 µM) was 0.0695 and the relative viability (NCI-H1395; first compound 0.01 µM) was 1.27. It also gave a relative viability (NCI-H1395; first compound 0.03162 µM) of 1.66, a relative viability (NCI-H1395; first compound 0.1 µM) of 1.41 and a relative viability (NCI-H1395; first compound 0.3162 µM) of 0.634. For the same compound, the relative viability (NCI-H1395; first compound 1 µM) was 0.408, the relative viability (SK-LU-1; first compound 0.01 µM) was 0.895 and the relative viability (SK-LU-1; first compound 0.03162 µM) was 0.649. The relative viability (SK-LU-1; first compound 0.1 µM) was 0.251, the relative viability (SK-LU-1; first compound 0.3162 µM) was 0.103 and the relative viability (SK-LU-1; first compound 1 µM) was 0.138. It also gave a relative viability (NCI-H2170; first compound 0.01 µM) of 0.62, a relative viability (NCI-H2170; first compound 0.03162 µM) of 0.702 and a relative viability (NCI-H2170; first compound 0.1 µM) of 0.577. For the same compound, the relative viability (NCI-H2170; first compound 0.3162 µM) was 0.653 and the relative viability (NCI-H2170; first compound 1 µM) was 0.584.
